Values joined by “and” are separate entries in the source; they are usually repeats but may differ in a detail not shown here. Equal entries are not always repeated.
Columns and labels:
Felis catus [1] = assay: Effect of intravenous infusion on respiration frequency in Anesthetized cats at a dose of 0.75 mg/kg at 5 min; format: functional
Oryctolagus cuniculus [2] = species: Oryctolagus cuniculus; assay: Effect on 35 mM K+-induced contraction on rabbit aorta at a dose of 3*10e-9 mol/L; format: functional
Felis catus [3] = assay: Effect of intravenous infusion on cardiac frequency in Anesthetized cats at a dose of 3 mg/kg at 20 min; format: functional, Heart
Felis catus [4] = assay: Effect of intraperitoneal infusion on respiration frequency in Anesthetized cats at a dose of 200 mg/kg at 105 min; format: functional
Felis catus [5] = assay: Effect of intraperitoneal infusion of compound on cardiac frequency in Anesthetized cats at a dose of 200 mg/kg at 90 min; format: functional, Heart
Felis catus [6] = assay: Effect of intraperitoneal infusion on diastolic pressure in Anesthetized cats at a dose of 200 mg/kg at 30 min; format: functional
Mus musculus = species: Mus musculus; assay: Dose required to protect 50% of tested mice against experimental antithrombosis.; format: functional
Oryctolagus cuniculus [7] = species: Oryctolagus cuniculus; assay: Effect on 35 mM K+-induced contraction on rabbit aorta at a dose of 10E-6 mol/L; format: functional
Felis catus [8] = assay: Effect of intraperitoneal infusion on diastolic pressure in Anesthetized cats at a dose of 200 mg/kg at 45 min; format: functional
Felis catus [9] = assay: Effect of intraperitoneal infusion on respiration frequency in Anesthetized cats at a dose of 200 mg/kg at 165 min; format: functional
Felis catus [10] = assay: Effect of intraperitoneal infusion on systolic pressure in Anesthetized cats at a dose of 200 mg/kg at 180 min; format: functional
Felis catus [11] = assay: Effect of intraperitoneal infusion of compound on cardiac frequency in Anesthetized cats at a dose of 200 mg/kg at 105 min; format: functional, Heart
Cavia porcellus [12] = species: Cavia porcellus; assay: Chronotropic activity on left and right guinea pig artia (beats/min), at 0 min; format: functional
Felis catus [13] = assay: Effect of intraperitoneal infusion on systolic pressure in Anesthetized cats at a dose of 200 mg/kg at 75 min; format: functional
Felis catus [14] = assay: Effect of intraperitoneal infusion on systolic pressure in Anesthetized cats at a dose of 200 mg/kg at 60 min; format: functional
Felis catus [15] = assay: Effect of intravenous infusion on cardiac frequency in Anesthetized cats at a dose of 1.50 mg/kg at 10 min; format: functional, Heart; conditions: dose 1.5 mg/kg
Felis catus [16] = assay: Effect of intravenous infusion on systolic pressure in Anesthetized cats at a dose of 1.50 mg/kg at 10 min; format: functional; conditions: dose 1.5 mg/kg
Cavia porcellus [17] = species: Cavia porcellus; assay: Chronotropic activity on left and right guinea pig artia (beats/min), at 150 min; format: functional
Felis catus [18] = assay: Effect of intraperitoneal infusion on diastolic pressure in Anesthetized cats at a dose of 200 mg/kg at 15 min; format: functional
Cavia porcellus [19] = species: Cavia porcellus; assay: Effect on guinea pig artia (beats/min), at the a dose of 0 M; format: functional
Felis catus [20] = assay: Effect of intraperitoneal infusion on respiration frequency in Anesthetized cats at a dose of 200 mg/kg at 60 min; format: functional
Felis catus [21] = assay: Effect of intravenous infusion on respiration frequency in Anesthetized cats at a dose of 3 mg/kg at 20 min; format: functional
Felis catus [22] = assay: Effect of intraperitoneal infusion of compound on cardiac frequency in Anesthetized cats at a dose of 200 mg/kg at 45 min; format: functional, Heart
Cavia porcellus [23] = species: Cavia porcellus; assay: Effect on guinea pig artia (beats/min), at the a dose of 10e-6 M; format: functional
Felis catus [24] = assay: Effect of intraperitoneal infusion of compound on cardiac frequency in Anesthetized cats at a dose of 200 mg/kg at 120 min; format: functional, Heart
Felis catus [25] = assay: Effect of intraperitoneal infusion on systolic pressure in Anesthetized cats at a dose of 200 mg/kg at 30 min; format: functional
Felis catus [26] = assay: Effect on cardiac frequency in Anesthetized cats at a dose of 2.25 mg/kg at 15 min; format: functional, Heart
Felis catus [27] = assay: Effect of intravenous infusion on systolic pressure in Anesthetized cats at a dose of 0.15 mg/kg at 1 min; format: functional
Felis catus [28] = assay: Effect of intravenous infusion of compound on diastolic pressure in Anesthetized cats at a dose of 3 mg/kg at 20 min; format: functional
Felis catus [29] = assay: Effect of intraperitoneal infusion of compound on cardiac frequency in Anesthetized cats at a dose of 200 mg/kg at 75 min; format: functional, Heart
Oryctolagus cuniculus [30] = species: Oryctolagus cuniculus; assay: Effect on 35 mM K+-induced contraction on rabbit aorta at a dose of 10E-9 mol/L; format: functional
Felis catus [31] = assay: Effect of intraperitoneal infusion on respiration frequency in Anesthetized cats at a dose of 200 mg/kg at 18 0 min; format: functional
Felis catus [32] = assay: Effect of intraperitoneal infusion on systolic pressure in Anesthetized cats at a dose of 200 mg/kg at 45 min; format: functional
Cavia porcellus [33] = species: Cavia porcellus; assay: Chronotropic activity on left and right guinea pig artia (beats/min), at 75 min; format: functional
Felis catus [34] = assay: Effect of intravenous infusion on cardiac frequency in Anesthetized cats at a dose of 0.30 mg/kg at 2 min; format: functional, Heart; conditions: dose 0.3 mg/kg
Felis catus [35] = assay: Effect of intraperitoneal infusion of compound on cardiac frequency in Anesthetized cats at a dose of 200 mg/kg at 15 min; format: functional, Heart
Cavia porcellus [36] = species: Cavia porcellus; assay: Effect on guinea pig artia (beats/min), at the a dose of 10e-8 M; format: functional
Cavia porcellus [37] = species: Cavia porcellus; assay: Effect on guinea pig artia (beats/min), at the a dose of 10e-7 M; format: functional
Cavia porcellus [38] = species: Cavia porcellus; assay: Chronotropic activity on left and right guinea pig artia (beats/min), at 120 min; format: functional
Felis catus [39] = assay: Effect of intraperitoneal infusion on respiration frequency in Anesthetized cats at a dose of 200 mg/kg at 0 min; format: functional
Felis catus [40] = assay: Effect of intraperitoneal infusion on diastolic pressure in Anesthetized cats at a dose of 200 mg/kg at 60 min; format: functional
Felis catus [41] = assay: Effect of intravenous infusion on diastolic pressure in Anesthetized cats at a dose of 0.75 mg/kg at 5 min; format: functional
Felis catus [42] = assay: Effect of intraperitoneal infusion on systolic pressure in Anesthetized cats at a dose of 200 mg/kg at 0 min; format: functional
Felis catus [43] = assay: Effect of intravenous infusion on systolic pressure in Anesthetized cats at a dose of 2.25 mg/kg at 15 min; format: functional
Felis catus [44] = assay: Effect of intraperitoneal infusion on systolic pressure in Anesthetized cats at a dose of 200 mg/kg at 15 min; format: functional
Oryctolagus cuniculus [45] = species: Oryctolagus cuniculus; assay: Effect on 35 mM K+-induced contraction on rabbit aorta at a dose of 10E-8 mol/L; format: functional
Felis catus [46] = assay: Effect of intraperitoneal infusion on diastolic pressure in Anesthetized cats at a dose of 200 mg/kg at 0 min; format: functional
Cavia porcellus [47] = species: Cavia porcellus; assay: Chronotropic activity on left and right guinea pig artia (beats/min), at 60 min; format: functional

## CCO/C(O)=C1\C(C)=NC(C)=C(C(=O)OCCN2C(=O)c3ccccc3S2(=O)=O)C1C (configuration not stated)
Felis catus [1]
  Respiratory frequency: 19 r.p.m.
Oryctolagus cuniculus [2]
  Inhibition: 0%
Felis catus [3]
  Cardiac frequency: 216 beats min-1
Felis catus [4]
  Respiratory frequency: 12 r.p.m.
Felis catus [5]
  Cardiac frequency: 256 beats min-1
Felis catus [6]
  Arterial pressure: 90 mmHg
Mus musculus
  ED50: 2.23 µmol/kg and 1 mg/kg
Oryctolagus cuniculus [7]
  Inhibition: 48.13%
Felis catus [8]
  Arterial pressure: 85 mmHg
Felis catus [9]
  Respiratory frequency: 15 r.p.m.
Felis catus [10]
  Arterial pressure: 145 mmHg
Felis catus [11]
  Cardiac frequency: 259 beats min-1
Cavia porcellus [12]
  Beats/min: 137
  Control: 100%
Felis catus [13]
  Arterial pressure: 137 mmHg
Felis catus [14]
  Arterial pressure: 130 mmHg
Felis catus [15]
  Cardiac frequency: 210 beats min-1
Felis catus [16]
  Arterial pressure: 160 mmHg
Cavia porcellus [17]
  Beats/min: 129
  Control: 94.2%
Felis catus [18]
  Arterial pressure: 90 mmHg
Cavia porcellus [19]
  Beats/min: 183
  Control: 100%
Felis catus [20]
  Respiratory frequency: 13 r.p.m.
Felis catus [21]
  Respiratory frequency: 18 r.p.m.
Felis catus [22]
  Cardiac frequency: 245 beats min-1
Cavia porcellus [23]
  Beats/min: 181
  Control: 98.5%
Felis catus [24]
  Cardiac frequency: 261 beats min-1
Felis catus [25]
  Arterial pressure: 135 mmHg
Felis catus [26]
  Cardiac frequency: 217 beats min-1
Felis catus [27]
  Arterial pressure: 165 mmHg
Felis catus [28]
  Arterial pressure: 110 mmHg
Felis catus [29]
  Cardiac frequency: 255 beats min-1
Oryctolagus cuniculus [30]
  Inhibition: 0%
Felis catus [31]
  Respiratory frequency: 15 r.p.m.
Felis catus [32]
  Arterial pressure: 125 mmHg
Cavia porcellus [33]
  Beats/min: 134
  Control: 97.8%
Felis catus [34]
  Cardiac frequency: 190 beats min-1
Felis catus [35]
  Cardiac frequency: 254 beats min-1
Cavia porcellus [36]
  Beats/min: 176
  Control: 96.3%
Cavia porcellus [37]
  Beats/min: 181
  Control: 98.6%
Cavia porcellus [38]
  Beats/min: 131
  Control: 95.6%
Felis catus [39]
  Respiratory frequency: 14 r.p.m.
Felis catus [40]
  Arterial pressure: 85 mmHg
Felis catus [41]
  Arterial pressure: 112 mmHg
Felis catus [42]
  Arterial pressure: 130 mmHg
Felis catus [43]
  Arterial pressure: 162 mmHg
Felis catus [44]
  Arterial pressure: 130 mmHg
Oryctolagus cuniculus [45]
  Inhibition: 0%
Felis catus [46]
  Arterial pressure: 85 mmHg
Cavia porcellus [47]
  Beats/min: 136
  Control: 99.3%

— ChEMBL document CHEMBL1123971, “Synthesis, platelet aggregation inhibitory activity, and in vivo antithrombotic activity of new 1,4-dihydropyridines” (J Med Chem, 1988)
